The numbers were not newly measured in patent publication US20240023548A1, “TAU-FLUVALINATE COMPOSITIONS” (Adama Makhteshim Ltd., priority 2020, published 2024), which cites them from elsewhere.

For the molecule `CC(C)[C@@H](Nc1ccc(C(F)(F)F)cc1Cl)C(=O)OC(C#N)c1cccc(Oc2ccccc2)c1` (some centres unmarked) [Tau-fluvalinate, tau-fluvalinate], the “Solubility in organic solvents” value (organic solvents) is listed as “soluble in organic solvents”. The Solubility in water result (water) was “low solubility in water”.
